pEC50: −log10 of the molar value. Where two headings read alike, the source gives them in different places.

Data set [1] concerns the target T1, hGIPR (Homo sapiens, UniProt P48546).
T1 construct: expressed in transfected cells; host or cells: CHO CRE-luciferase reporter cells
T1 sequence (P48546 22-466): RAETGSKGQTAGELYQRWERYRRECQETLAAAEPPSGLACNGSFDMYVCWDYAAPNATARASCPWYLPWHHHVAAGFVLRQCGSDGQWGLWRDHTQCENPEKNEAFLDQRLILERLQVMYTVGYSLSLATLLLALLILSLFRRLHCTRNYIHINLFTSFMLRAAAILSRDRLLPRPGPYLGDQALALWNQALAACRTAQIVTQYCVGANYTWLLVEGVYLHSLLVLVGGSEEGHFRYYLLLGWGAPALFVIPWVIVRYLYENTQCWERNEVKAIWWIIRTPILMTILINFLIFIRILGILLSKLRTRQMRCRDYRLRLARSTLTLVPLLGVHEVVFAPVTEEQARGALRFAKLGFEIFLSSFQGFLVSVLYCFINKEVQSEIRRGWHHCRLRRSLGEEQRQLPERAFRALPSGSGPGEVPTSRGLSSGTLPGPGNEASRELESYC
The data set is described as follows: hGIPR CreLuc assay in 0.5% and 100% plasma (CHO CRE-luciferase reporter cells). It is filed as cell-based. The following applies: 0.5% human plasma, read-out: hGIPR 0.5% hP. In general terms: A reporter such as luciferase makes a cellular process visible.

The nature of data set [2]: Solubility in 0.1 M phosphate buffer at pH 7. The following applies: 0.1 M phosphate buffer at pH 7, 10 mg/mL final peptide concentration, shaking 2 hours at room temperature, peptides as TFA-salts; measured sample pH 6.5-7.0. The format is physicochemical.
Data set [3] has as its target T2, hGLP1R (Homo sapiens, UniProt P43220).
T2 construct: expressed in transfected cells; host or cells: HEK-293 CRE-luciferase reporter cells
As to the kind of experiment: hGLP1R CreLuc assay in 0.5% and 100% plasma (HEK-293 CRE-luciferase reporter cells). It is filed as cell-based. Particulars: 0.5% human plasma, HEK-293 reporter cells; for pEC50: read-out: hGLP1R 0.5% hP. The source says: CHO and HEK-293 recombinant cell lines express a luciferase reporter gene under control of the CAMP responsive element (CRE). As a second recombinant protein the GLP-1 and NPY2 receptors were expressed in the reporter gene HEK cells, and the GIP receptor was expressed in the reporter gene CHO cells, respectively. Stimulation of these recombinant cells with an agonist leads to an increase of intracellular CAMP levels. In the presence of CAMP, the transcription factor CRE binding protein (CREB) binds to the CRE and to the CREB binding protein (CBP), which leads to transcription of the luciferase reporter gene. Peptides upon serial-dilution in 100% DMSO were transferred into 384-well assay plates with 5 μl pre-dispensed assay buffer (1×HBSS, 20 mM HEPES, pH7.4 supplemented with 0.5% human plasma) using acoustic dispensing on a Labcyte ECHO. Cryo-preserved transgenic reporter gene cells were thawed in assay buffer. 20 μl (10.000 cells/well) were added to the plate with the peptides and incubated for 4 hours at 37° C. in a humidified incubator. Following incubation, assay plates are equilibrated to room temperature, followed by addition of 25 μl of Bright-Glo™ Luciferase reagent, incubation at room temperature for 10 minutes and analysis of luminescence (Envision Reader). […] EC50 values were calculated by non-linear regression using sigmoid concentration-response with variable slope.
The same assays were run in the presence of 100% plasma with no additional buffer constituents.

T2 sequence (P43220 24-463): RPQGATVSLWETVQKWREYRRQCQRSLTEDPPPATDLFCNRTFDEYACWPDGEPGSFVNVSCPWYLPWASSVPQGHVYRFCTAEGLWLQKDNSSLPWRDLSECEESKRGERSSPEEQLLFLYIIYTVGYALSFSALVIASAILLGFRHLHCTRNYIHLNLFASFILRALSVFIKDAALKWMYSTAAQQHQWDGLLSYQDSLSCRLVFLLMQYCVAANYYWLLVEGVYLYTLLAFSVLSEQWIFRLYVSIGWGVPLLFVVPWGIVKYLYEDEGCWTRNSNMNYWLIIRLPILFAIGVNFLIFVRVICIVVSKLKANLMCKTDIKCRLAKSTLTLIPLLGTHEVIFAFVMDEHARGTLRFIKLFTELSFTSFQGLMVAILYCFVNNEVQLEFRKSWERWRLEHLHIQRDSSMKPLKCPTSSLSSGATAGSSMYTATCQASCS

As a reminder, the solubility is the dissolved amount per volume that the medium holds. On to `CC[C@H](C)[C@H](NC(=O)[C@H](CC(C)C)NC(=O)[C@H](Cc1c[nH]cn1)NC(=O)[C@H](CCCNC(=N)N)NC(=O)[C@@H](NC(=O)[C@H](Cc1ccccc1)NC(=O)[C@H](C)NC(=O)C(C)(C)NC(=O)[C@H](CCC(N)=O)NC(=O)[C@H](C)NC(=O)[C@H](CCC(N)=O)NC(=O)[C@H](CCCCN)NC(=O)[C@H](CCC(=O)O)NC(=O)[C@H](CC(C)C)NC(=O)C(C)(C)NC(=O)[C@@H](NC(=O)[C@H](CO)NC(=O)[C@H](Cc1ccc(O)cc1)NC(=O)[C@H](CC(=O)O)NC(=O)[C@H](CO)NC(=O)[C@@H](NC(=O)[C@H](Cc1ccccc1)NC(=O)[C@@H](NC(=O)CNC(=O)[C@H](CCC(=O)O)NC(=O)C(C)(C)NC(=O)[C@@H](N)Cc1ccc(O)cc1)[C@@H](C)O)[C@@H](C)O)[C@@H](C)CC)C(C)C)C(=O)N[C@@H](CC(N)=O)C(=O)N[C@@H](CCCCNC(=O)CC[C@H](NC(=O)CC[C@H](NC(=O)CC[C@H](NC(=O)CC[C@H](NC(=O)CC[C@H](NC(=O)CC[C@H](NC(=O)CCCCCCCCCCCCCCCCC(=O)O)C(=O)O)C(=O)O)C(=O)O)C(=O)O)C(=O)O)C(=O)O)C(=O)NC(C)(C)C(=O)N[C@H](C(=O)N[C@@H](CCCNC(=N)N)C(=O)N(C)[C@@H](CCC(N)=O)C(=O)N[C@@H](CCCNC(=N)N)C(=O)N[C@@H](Cc1ccc(O)cc1)C(N)=O)[C@@H](C)O` [Compound 2, Y-Aib-E-G-T-F-T-S-D-Y-S-I-Aib-L-E-K-Q-A-Q-Aib-A-F-V-R-H-L-I-N-K(1,3)-Aib-T-R-NMeQ-R-Y-NH2.C18DA-gGlu-gGlu-gGlu-gGlu-gGlu-gGlu(1,2)], for which the pEC50 was 9.40 in data set [1] and 9.10 in data set [3]. Moreover, in data set [2], the solubility at 2 h was 5000 µg/mL.
Take `CC[C@H](C)[C@H](NC(=O)[C@H](CC(C)C)NC(=O)[C@H](Cc1c[nH]cn1)NC(=O)[C@H](CCCNC(=N)N)NC(=O)[C@@H](NC(=O)[C@H](Cc1ccccc1)NC(=O)[C@H](C)NC(=O)C(C)(C)NC(=O)[C@H](CCC(N)=O)NC(=O)[C@H](C)NC(=O)[C@H](CCC(N)=O)NC(=O)[C@H](CCCCN)NC(=O)[C@H](CCC(=O)O)NC(=O)[C@H](CC(C)C)NC(=O)C(C)(C)NC(=O)[C@@H](NC(=O)[C@H](CO)NC(=O)[C@H](Cc1ccc(O)cc1)NC(=O)[C@H](CC(=O)O)NC(=O)[C@H](CO)NC(=O)[C@@H](NC(=O)[C@H](Cc1ccccc1)NC(=O)[C@H](CCC(=O)O)NC(=O)CNC(=O)[C@H](CCC(=O)O)NC(=O)C(C)(C)NC(=O)[C@@H](N)Cc1ccc(O)cc1)[C@@H](C)O)[C@@H](C)CC)C(C)C)C(=O)N[C@@H](CC(N)=O)C(=O)N[C@@H](CCCCNC(=O)[C@@H](N)CCCCNC(=O)CC[C@H](NC(=O)CC[C@H](NC(=O)CC[C@H](NC(=O)CC[C@H](NC(=O)CC[C@H](NC(=O)CC[C@H](NC(=O)CCCCCCCCCCCCCCCCC(=O)O)C(=O)O)C(=O)O)C(=O)O)C(=O)O)C(=O)O)C(=O)O)C(=O)NC(C)(C)C(=O)N[C@H](C(=O)N[C@@H](CCCNC(=N)N)C(=O)N[C@@H](CCC(N)=O)C(=O)N[C@@H](CCCNC(=N)N)C(=O)N[C@@H](Cc1ccc(O)cc1)C(N)=O)[C@@H](C)O` [Compound 54, Y-Aib-E-G-E-F-T-S-D-Y-S-I-Aib-L-E-K-Q-A-Q-Aib-A-F-V-R-H-L-I-N-K(1,3)-Aib-T-R-Q-R-Y-NH2.C18DA-gGlu-gGlu-gGlu-gGlu-gGlu-gGlu-eLys(1,2)]: the solubility at 2 h in data set [2] is 9600 µg/mL. Moreover, the pEC50 in data set [3] is 8.47.
Broadly, the EC50 is the concentration at which the effect is half-maximal. Consider `CC[C@H](C)[C@H](NC(=O)[C@H](CO)NC(=O)[C@H](CC(C)C)NC(=O)[C@H](CC(=O)O)NC(=O)[C@H](CO)NC(=O)[C@@H](NC(=O)[C@H](Cc1ccccc1)NC(=O)[C@@H](NC(=O)CNC(=O)[C@H](CCC(=O)O)NC(=O)C(C)(C)NC(=O)[C@@H](N)Cc1ccc(O)cc1)[C@@H](C)O)[C@@H](C)O)C(=O)NC(C)(C)C(=O)N[C@@H](CC(C)C)C(=O)N[C@@H](CCC(=O)O)C(=O)N[C@@H](CCCCN)C(=O)N[C@@H](CCC(N)=O)C(=O)N[C@@H](C)C(=O)N[C@@H](CCC(N)=O)C(=O)NC(C)(C)C(=O)N[C@@H](C)C(=O)N[C@@H](Cc1ccccc1)C(=O)N[C@H](C(=O)N[C@@H](CCCNC(=N)N)C(=O)N[C@@H](Cc1c[nH]cn1)C(=O)N[C@@H](CC(C)C)C(=O)N[C@@H](CC(C)C)C(=O)N[C@@H](CC(N)=O)C(=O)N[C@@H](CCCCNC(=O)[C@@H](N)CCCCNC(=O)CC[C@H](NC(=O)CC[C@H](NC(=O)CC[C@H](NC(=O)CC[C@H](NC(=O)CC[C@H](NC(=O)CC[C@H](NC(=O)CCCCCCCCCCCCCCCCCCC(=O)O)C(=O)O)C(=O)O)C(=O)O)C(=O)O)C(=O)O)C(=O)O)C(=O)NC(C)(C)C(=O)N[C@H](C(=O)N[C@@H](CCCNC(=N)N)C(=O)N[C@@H](CCC(N)=O)C(=O)N[C@@H](CCCNC(=N)N)C(=O)N[C@@H](Cc1ccc(O)cc1)C(N)=O)[C@@H](C)O)C(C)C` [Compound 115, Y-Aib-E-G-T-F-T-S-D-L-S-I-Aib-L-E-K-Q-A-Q-Aib-A-F-V-R-H-L-L-N-K(1,3)-Aib-T-R-Q-R-Y-NH2.C20DA-gGlu-gGlu-gGlu-gGlu-gGlu-gGlu-eLys(1,2)], for which the solubility at 2 h in data set [2] came out at 8200 µg/mL. The same compound displayed an EC50 in data set [3] (hGLP1R 0.5% hP (nM)) of 7 nM.
For `CC[C@H](C)[C@H](NC(=O)[C@H](CO)NC(=O)[C@H](Cc1ccc(O)cc1)NC(=O)[C@H](CC(=O)O)NC(=O)[C@H](CO)NC(=O)[C@@H](NC(=O)[C@H](Cc1ccccc1)NC(=O)[C@@H](NC(=O)CNC(=O)[C@H](CCC(=O)O)NC(=O)C(C)(C)NC(=O)[C@@H](N)Cc1ccc(O)cc1)[C@@H](C)O)[C@@H](C)O)C(=O)NC(C)(C)C(=O)N[C@@H](CC(C)C)C(=O)N[C@@H](CC(=O)O)C(=O)N[C@@H](CCCCN)C(=O)N[C@@H](CCC(N)=O)C(=O)N[C@@H](C)C(=O)N[C@@H](CCC(N)=O)C(=O)NC(C)(C)C(=O)N[C@@H](C)C(=O)N[C@@H](Cc1ccccc1)C(=O)N[C@H](C(=O)N[C@@H](CCCNC(=N)N)C(=O)N[C@@H](Cc1c[nH]cn1)C(=O)N[C@@H](CC(C)C)C(=O)N[C@@H](CC(C)C)C(=O)N[C@@H](CC(N)=O)C(=O)N[C@@H](CCCCNC(=O)[C@@H](N)CCCCNC(=O)CC[C@H](NC(=O)CC[C@H](NC(=O)CC[C@H](NC(=O)CC[C@H](NC(=O)CC[C@H](NC(=O)CC[C@H](NC(=O)CCCCCCCCCCCCCCCCC(=O)O)C(=O)O)C(=O)O)C(=O)O)C(=O)O)C(=O)O)C(=O)O)C(=O)NC(C)(C)C(=O)N[C@H](C(=O)N[C@@H](CCCNC(=N)N)C(=O)N[C@@H](CCC(N)=O)C(=O)N[C@@H](CCCNC(=N)N)C(=O)N[C@@H](Cc1ccc(O)cc1)C(N)=O)[C@@H](C)O)C(C)C` [Compound 173, Y-Aib-E-G-T-F-T-S-D-Y-S-I-Aib-L-D-K-Q-A-Q-Aib-A-F-V-R-H-L-L-N-K(1,3)-Aib-T-R-Q-R-Y-NH2.C18DA-gGlu-gGlu-gGlu-gGlu-gGlu-gGlu-eLys(1,2)], the pEC50 is 9.15 in data set [1] and 9.70 in data set [3].

Source of the values: US20250382344A1, “Soluble GLP1/GIP/NPY2 Receptor Triple Agonists” (Boehringer Ingelheim International GmH, priority 2024, published 2025).
